# Reference: ChEMBL document CHEMBL5120920, “A Mitochondria-Targeted Phenylbutyric Acid Prodrug Confers Drastically Improved Anticancer Activities” (J Med Chem, 2022)
# Activity calls are given as the source filed them. The rule behind the calls is not given here.
# What was measured:
# [1] = system: A-375; test: Induction of cell cycle arrest in human A-375 cells assessed as accumulation at G1 phase at 2.5 uM incubated for 24 hrs by PI staining based flow cytometry analysis (reference value: 68.07 %); type: functional
# [2] = system: A549; test: Antiproliferative activity against human A549 cells assessed as inhibition of cell viability incubated for 72 hrs by MTT assay; type: functional, cell-based; details: A549, 72 h
# [3] = system: MDA-MB-231; test: Antiproliferative activity against human MDA-MB-231 cells assessed as inhibition of cell viability incubated for 72 hrs by MTT assay; type: functional, cell-based; details: MDA-MB-231, 72 h
# [4] = Toxicity in BALB/c mouse assessed as animal death at 50 to 100 mg/kg, […] measured after 7 days; type: organism-based; details: in vivo, 168 h, dose 50-100 mg/kg, time 7 day
# [5] = Toxicity in BALB/c mouse assessed as death of animal at 125 to 200 mg/kg, iv administered for 7 days; type: organism-based; details: in vivo, 168 h, dose 125-200 mg/kg, time 7 day
# [6] = Toxicity in BALB/c mouse assessed as histopathological changes in spleen at 50 to 100 mg/kg, iv measured after 7 days by H and E staining based assay; type: organism-based; details: in vivo, 168 h, dose 50-100 mg/kg, time 7 day
# [7] = Toxicity in BALB/c mouse assessed as histopathological changes in lung at 50 to 100 mg/kg, iv measured after 7 days by H and E staining based assay; type: organism-based; details: in vivo, 168 h, dose 50-100 mg/kg, time 7 day
# [8] = Metabolic stability in Sprague-Dawley rat plasma assessed as elimination half life by LC-MS/MS analysis; type: ADME, cell-free; details: read-out: beta t1/2
# [9] = system: A-375; test: Cytotoxicity against human A-375 cells assessed as reduction in cell vaibility measured at 24 hrs in absence of BNPP by MTT assay; type: functional, cell-based; details: A-375, 24 h
# [10] = system: A-375; test: Cytotoxicity against human A-375 cells assessed as reduction in cell vaibility measured at 48 hrs in absence of BNPP by MTT assay; type: functional, cell-based; details: A-375, 48 h
# [11] = system: A-375; test: Cytotoxicity against human A-375 cells assessed as reduction in cell vaibility measured at 24 hrs in presence of BNPP by MTT assay; type: functional, cell-based; details: A-375, 24 h
# [12] = Apparent permeability across apical to basolateral side in human Caco-2 cells at 2 uM measured after 2 hrs by LC-MS/MS analysis; type: ADME, cell-based
# [13] = Efflux ratio of apparent permeability from basolateral to apical side over apical to basolateral side in human Caco2 cells by LC-MS/MS analysis; type: ADME, cell-based; details: Caco-2
# [14] = target: Histone deacetylase (Homo sapiens) (UniProt Q13547+O15379+Q9UBN7+Q92769+Q9UQL6+Q8WUI4+Q9BY41+Q96DB2+P56524+Q9UKV0+Q969S8); test: Inhibition of HDAC in human A-375 cells assessed as upregulation of histone-H3 acetylation at 5 to 20 uM measured after 24 hrs; type: cell-based; details: dose 5-20 µM
# [15] = system: HUVEC; test: Induction of mitochondrial membrane hyperpolarization in HUVEC assessed as JC-1 level at 2.5 to 10 uM incubated for 4 hrs by JC-1 staining based flow cytometry analysis relative to control; type: functional, Homo sapiens; details: dose 2.5-10 µM
# [16] = system: HaCaT; test: Induction of mitochondrial membrane hyperpolarization in human HaCaT cells assessed as JC-1 level at 2.5 to 10 uM incubated for 4 hrs by JC-1 staining based flow cytometry analysis relative to control; type: functional; details: dose 2.5-10 µM
# [17] = system: HEK-293T; test: Induction of mitochondrial membrane hyperpolarization in HEK293T cells assessed as JC-1 level at 2.5 to 10 uM incubated for 4 hrs by JC-1 staining based flow cytometry analysis relative to control; type: functional, Homo sapiens; details: dose 2.5-10 µM
# [18] = system: L02; test: Induction of mitochondrial membrane hyperpolarization in human L02 cells assessed as JC-1 level at 2.5 to 10 uM incubated for 4 hrs by JC-1 staining based flow cytometry analysis relative to control; type: functional; details: dose 2.5-10 µM
# [19] = system: A-375; test: Induction of mitochondrial membrane hyperpolarization in human A-375 cells assessed as JC-1 level at 2.5 to 10 uM incubated for 4 hrs by JC-1 staining based flow cytometry analysis relative to control; type: functional; details: dose 2.5-10 µM
# [20] = system: A-375; test: Induction of mitochondrial membrane depolarization in human A-375 cells assessed as reduction in red fluorescence intensity incubated for 4 hrs by TMRM staining based fluorescence microscopy analysis; type: functional, cell-based; details: dose 2.5-10 µM, DDE = dose-dependent effect
# [21] = system: A-375; test: Inhibition of colony formation in human A-375 cells preincubated for 72 hrs followed by drug free medium addition for 10 to 14 days by crystal violet staining based analysis; type: functional, cell-based; details: dose 0.5-1 µM, DDE = dose-dependent effect
# [22] = system: A-375; test: Induction of apoptosis in human A-375 cells assessed as apoptotic cells at 2.5 uM measured after 48 hrs by Annexin V FITC/PI staining based flow cytometry analysis relative to control; type: functional
# [23] = system: A-375; test: Induction of apoptosis in human A-375 cells assessed as apoptotic cells at 5 uM measured after 48 hrs by Annexin V FITC/PI staining based flow cytometry analysis relative to control; type: functional
# [24] = system: A-375; test: Induction of apoptosis in human A-375 cells assessed as apoptotic cells at 10 uM measured after 48 hrs by Annexin V FITC/PI staining based flow cytometry analysis relative to control; type: functional
# [25] = system: A-375; test: Induction of cell cycle arrest in human A-375 cells assessed as accumulation at G2 phase at 5 uM incubated for 24 hrs by PI staining based flow cytometry analysis (reference value: 7.92 %); type: functional
# [26] = system: A-375; test: Induction of cell cycle arrest in human A-375 cells assessed as accumulation at G2 phase at 7.5 uM incubated for 24 hrs by PI staining based flow cytometry analysis (reference value: 7.92 %); type: functional
# [27] = system: A-375; test: Induction of mitochondrial damage in human A-375 cells assessed as decrease in oxygen consumption rate at 5 uM measured after 4 hrs; type: functional, cell-based
# [28] = system: A-375; test: Inhibition of glycolysis in human A-375 cells assessed as reduction in extracellular acidification rate at 0.25 to 5 uM measured after 4 hrs; type: functional, cell-based; details: dose 0.25-5 µM
# [29] = system: A-375; test: Antitumor activity against human A-375 cells xenografted in nude mouse assessed as tumor growth inhibition at 10 to 40 mg/kg, ip and measured once every two days for 14 days; type: functional, organism-based; details: dose 10-40 mg/kg, time 14.0 day
# [30] = system: A-375; test: Antitumor activity against human A-375 cells xenografted in nude mouse assessed as induction of apoptosis by measuring morphological changes at 40 mg/kg, ip measured once every two days for 14 days by TUNEL assay; type: functional, organism-based; details: time 14.0 day
# [31] = Toxicity in BALB/c mouse assessed as change in body weight at 40 mg/kg, iv measured once every two days for 7 days; type: organism-based; details: in vivo, 168 h, time 7 day
# [32] = system: A-375; test: Antitumor activity against human A-375 cells implanted in BALB/c mouse assessed as tumor growth inhibition at 40 mg/kg, ip measured once every two days for 14 days; type: functional, organism-based; details: time 14.0 day
# [33] = system: A-375; test: Antitumor activity against human A-375 cells implanted in BALB/c mouse assessed as reduction in tumor weight at 40 mg/kg, ip measured once every two days for 14 days; type: functional, organism-based; details: time 14.0 day
# [34] = system: A-375; test: Antitumor activity against human A-375 cells implanted in BALB/c mouse assessed as shrinkage of tumor tissue at 40 mg/kg, ip measured once every two days for 14 days; type: functional, organism-based; details: time 14.0 day
structure (smiles),measurement,setting,value
O=C(CCCCCCCCC[P+](c1ccc(C(F)(F)F)cc1)(c1ccc(C(F)(F)F)cc1)c1ccc(C(F)(F)F)cc1)NC(COC(=O)CCCc1ccccc1)(COC(=O)CCCc1ccccc1)COC(=O)CCCc1ccccc1.[Br-],Activity,[1],74.71%
same,IC50,[2],4.72 µM
same,IC50,[3],3.71 µM
same,Activity,[4],Non-Toxic
same,Activity,[5],Non-Toxic
same,Activity,[6],Non-Toxic
same,Activity,[7],Non-Toxic
same,half-life,[8],4.28 h
same,IC50,[9],6.06 µM
same,IC50,[10],3.34 µM
same,IC50,[11],28.4 µM
same,"Papp A→B at 2 h, 2 µM",[12],24.3 ×10⁻⁶ cm/s
same,efflux ratio,[13],0.69
same,inhibition,[14],Active
same,Activity,[15],16.08%
same,Activity,[16],12.67%
same,Activity,[17],18.91%
same,Activity,[18],11.49%
same,Activity,[19],2.22%
same,Activity,[20],Dde
same,inhibition,[21],Dde
same,Activity,[22],6%
same,Activity,[23],12%
same,Activity,[24],50%
same,Activity,[25],8.85%
same,Activity,[26],7.88%
same,Activity,[27],Active
same,inhibition,[28],Active
same,Activity,[29],Active
same,Activity,[30],Active
same,Activity,[31],Non-Toxic
same,Activity,[32],Active
same,Activity,[33],Active
same,Activity,[34],Active
